The values that follow come from US4250176A, “Piperazine derivatives” (priority 1979, dated 1981).

In brackets after ≈: the same amount, converted by molar mass. Where a name gives a salt, the structure may show the parent alone. Read-outs that look alike come from different tables or passages of the source.

For assay [1], the system named is Guinea-pig ileum strips, histamine-induced contraction. In words: Anti-histamine activity in "vitro": histamine-induced spasms of guinea-pig ileum strips. The settings on record: histamine 0.5 mg/liter, 5 minutes incubation, concentration giving significant inhibition (50%) of the contraction; for IC50: Cavia porcellus, 5 min. It counts as cell-based. On the procedure: The histamine--(0.5 mg/liter) induced spasms are recorded Kymographically with an isotonic lever giving a 5-fold magnification.

Assay [2] concerns Guinea pigs sensitized to ovalbumin (anaphylactic shock). Nature of the assay: Anaphylaxis in guinea pigs: protection against death after ovalbumin challenge (survival). It counts as in vivo, guinea pig. The note with it: estimated ED50, oral, protection against death after i.v. 0.6 mg ovalbumin; for ED50: Cavia porcellus, read-out: Anaphylaxis in guinea pigs oral effective dose in mg/kg: Survival. On the procedure:
The anti-anaphylactic and antihistaminic effects of the subject compounds (I) and salts thereof are studied "in vivo" in guinea pigs.
Guinea pigs, weighing between 400 and 500 g, are sensitized to ovalbumin by subplantar (s.p.) injection of 0.05 ml of antiserum in the left hind paw. The animals are then starved and orally treated, 24 hours after the sensitization, with saline (=control animals) or a particular dose of the compound under investigation.
The histamine injection (at a dose of 50 μg) was given s.p. in the right hind paw 2 hours after the oral pretreatment with the compound. The diameters of both hind paws are first measured before the histamine injection is given and again 10 minutes thereafter. The animals are challenged intravenously with 0.6 mg of ovalbumin 30 minutes after the histamine injection. All control animals develop typical primary anaphylactic shock symptoms (coughing, difficult breathing, convulsions) and 85% of these control animals die within 15 minutes after the ovalbumin injection. Protection against death is used as the criterion for possible drug effects and the estimated ED50 -value, i.e. the oral dose whereby the protection is observed in 50% of the guinea pigs, is listed in the tables below.

Assay [3] deals with histamine paw oedema in guinea pigs. In words: Histamine paw oedema in guinea pigs. It counts as in vivo, guinea pig. The settings on record: oral dose giving paw reaction below 10 units 10 minutes after 50 μg histamine s.p., 2 hours after dosing; for minimal effective dose: Cavia porcellus, read-out: Anaphylaxis in guinea pigs oral effective dose in mg/kg: Histamine oedema. On the procedure:
Guinea pigs, weighing between 400 and 500 g, are sensitized to ovalbumin by subplantar (s.p.) injection of 0.05 ml of antiserum in the left hind paw. The animals are then starved and orally treated, 24 hours after the sensitization, with saline (=control animals) or a particular dose of the compound under investigation. The histamine injection (at a dose of 50 μg) was given s.p. in the right hind paw 2 hours after the oral pretreatment with the compound.

The mark [4] stands for this setting: Table I-a, read-out: Histamine in "vitro" (ileum) effective conc.
Setting [5] is: Table I-d, read-out: Histamine in "vitro" (ileum) effective dose.
Where [6] appears, read: Table I-b, read-out: Histamine in "vitro" (ileum) effective conc.

For the compound `CC(CN1CCN(C(c2ccc(F)cc2)c2ccc(F)cc2)CC1)Cn1c(=O)[nH]c2ccccc21` (stereo not drawn) [1-[3-{4-[bis(4-fluorophenyl)methyl]-1-piperazinyl}-2-methylpropyl]-1,3-dihydro-2H-benzimidazol-2-one], the IC50 in assay [1] (setting [4]) was 0.02 µg/mL (≈ 0.042 µM). In assay [2] (Table I-a), the ED50 is 1.25 mg/kg. Further, the minimal effective dose in assay [3] (Table I-a) was found to be 1.25 mg/kg.

Consider `Cc1ccc2c(c1)[nH]c(=O)n2CCN1CCN(C(c2ccccc2)c2ccccc2)CC1` [1-{2-[4-(diphenylmethyl)-1-piperazinyl]ethyl}-1,3-dihydro-5-methyl-2H-benzimidazol-2-one], for which, in assay [1] (setting [4]), the IC50 amounted to 0.01 µg/mL (≈ 0.0234 µM). The ED50 in assay [2] (Table I-a) is 1.25 mg/kg. Also, in assay [3] (Table I-a), the minimal effective dose is 1.25 mg/kg.

With `O=c1[nH]c2ccccc2n1CCCN1CCC(OC(c2ccccc2)c2ccccc2)CC1` [1-{3-[4-(diphenylmethoxy)-1-piperidinyl]-propyl}-1,3-dihydro-2H-benzimidazol-2-one], the IC50 in assay [1] (setting [5]) was 0.0025 µg/mL (≈ 0.00566 µM). Also, the ED50 in assay [2] (Table I-d) is 0.63 mg/kg. In assay [3] (Table I-d), the minimal effective dose was determined as 1.25 mg/kg.

As for `O=c1[nH]c2ccccc2n1CCCCN1CCN(C(c2ccccc2)c2ccccc2)CC1` [I-a: L=H, R1=H, R2=H, (CH2)4, R6=H, R7=H, 1-{4-[4-(diphenylmethyl)-1piperazinyl]butyl}-1,3-dihydro-2H-benzimidazol-2-one], the IC50 in assay [1] (setting [4]) stood at 0.01 µg/mL (≈ 0.0227 µM). For the same compound, in assay [2] (Table I-a), the ED50 was 0.16 mg/kg. For the same compound, the minimal effective dose in assay [3] (Table I-a) was determined as 0.31 mg/kg.

As to `Cc1ccc2c(c1)[nH]c(=O)n2CCCN1CCN(C(c2ccccc2)c2ccccc2)CC1` [1-{3-[4-(diphenylmethyl)-1-piperazinyl]propyl}-1,3-dihydro-5-methyl-2H-benzimidazol-2-one], in assay [1] (setting [4]), the IC50 was found to be 0.01 µg/mL (≈ 0.0227 µM). For the same compound, the ED50 in assay [2] (Table I-a) was 0.08 mg/kg. Moreover, in assay [3] (Table I-a), the minimal effective dose was 0.16 mg/kg.

On to `O=c1[nH]c2ccccc2n1CCN1CCN(C(c2ccccc2)c2ccccc2)CC1` [I-a: L=H, R1=H, R2=H, (CH2)2, R6=H, R7=H, 1-{2-[4-(diphenylmethyl)-1-piperazinyl]ethyl}-1,3-dihydro-2H-benzimidazol-2-one], for which, in assay [1] (setting [4]), the IC50 was 0.01 µg/mL (≈ 0.0242 µM). The ED50 in assay [2] (Table I-a) was 0.63 mg/kg. Further, the minimal effective dose in assay [3] (Table I-a) came out at 1.25 mg/kg.

Take `O=c1[nH]c2cc(Cl)c(Cl)cc2n1CCCN1CCN(C(c2ccccc2)c2ccccc2)CC1` [5,6-dichloro-1-{3-[4-(diphenylmethyl)-1-piperazinyl]propyl}-1,3-dihydro-2H-benzimidazol-2one]: in assay [1] (setting [4]), the IC50 is no less than 0.16 µg/mL. For the same compound, in assay [2] (Table I-a), the ED50 is 2.5 mg/kg. Further, the minimal effective dose in assay [3] (Table I-a) amounted to 2.5 mg/kg.

Take `O=c1[nH]c2ccccc2n1CCCN1CCN(C(c2ccccc2)c2ccc(Br)cc2)CC1` (stereo not drawn) [1-[3-{4-[(4-bromophenyl)phenylmethyl]-1-piperazinyl}propyl]-1,3-dihydro-2H-benzimidazol-2-one]: the IC50 in assay [1] (setting [4]) was 0.16 µg/mL (≈ 0.317 µM). Also, the ED50 in assay [2] (Table I-a) was less than 2.5 mg/kg. The minimal effective dose in assay [3] (Table I-a) was less than 2.5 mg/kg.

With `Cc1ccc(C(c2ccccc2)N2CCN(CCCn3c(=O)[nH]c4ccccc43)CC2)cc1` (stereo not drawn) [1,3-dihydro-1-[3-{4-[(4-methylphenyl)phenylmethyl]-1-piperazinyl}-propyl}-2H-benzimidazol-2-one], in assay [1] (setting [4]), the IC50 worked out at 0.08 µg/mL (≈ 0.182 µM). Besides, the ED50 in assay [2] (Table I-a) is less than 2.5 mg/kg. Besides, the minimal effective dose in assay [3] (Table I-a) is less than 2.5 mg/kg.

Regarding `CC(CN1CCN(C(c2ccc(F)cc2)c2ccc(F)cc2)CC1)Cn1cnc2ccccc21` (stereo not drawn) [1-[3-{4-[bis(4-fluorophenyl)methyl]-1-piperazinyl}-2-methylpropyl]-1H-benzimidazole trihydrochloride.hemihydrate], the IC50 in assay [1] (setting [6]) stood at 0.02 µg/mL. For the same compound, in assay [2] (Table I-b), the ED50 was 0.63 mg/kg. Further, the minimal effective dose in assay [3] (Table I-b) stood at 1.25 mg/kg.

On to `O=c1[nH]c2ccc(Cl)cc2n1CCN1CCN(C(c2ccccc2)c2ccccc2)CC1` [6-chloro-1-{2-[4-(diphenylmethyl)-1-piperazinyl]ethyl}-1,3-dihydro-2H-benzimidazol-2-one], for which the IC50 in assay [1] (setting [4]) worked out at 0.02 µg/mL (≈ 0.0447 µM). Moreover, the ED50 in assay [2] (Table I-a) is 2.5 mg/kg. The minimal effective dose in assay [3] (Table I-a) is 2.5 mg/kg.

Regarding `Nc1nc2ccccc2n1CCCN1CCN(C(c2ccccc2)c2ccccc2)CC1` [I-b: M=H2N, R1=H, (CH2)3, R6=H, R7=H, 1-{3-[4-(diphenylmethyl)-1-piperazinyl]propyl}-1H-benzimidazol-2-amine], the IC50 in assay [1] (setting [6]) is no more than 0.16 µg/mL. Moreover, the ED50 in assay [2] (Table I-b) was 2.5 mg/kg. The minimal effective dose in assay [3] (Table I-b) amounted to 2.5 mg/kg.

In the case of `O=c1[nH]c2ccccc2n1CCN1CCC(OC(c2ccc(F)cc2)c2ccc(F)cc2)CC1` [1-[2-{4-[bis(4-fluorophenyl)methoxy]-1-piperidinyl}ethyl]-1,3-dihydro-2H-benzimidazol-2-one hydrochloride.hemihydrate], in assay [1] (setting [5]), the IC50 amounted to 0.0025 µg/mL. For the same compound, the ED50 in assay [2] (Table I-d) was 0.31 mg/kg. In addition, the minimal effective dose in assay [3] (Table I-d) was determined as 0.31 mg/kg.

As for `O=c1[nH]c2cc(Cl)ccc2n1CCN1CCN(C(c2ccccc2)c2ccccc2)CC1` [5-chloro-1-{2-[4-(diphenylmethyl)-1-piperazinyl]ethyl}-1,3-dihydro-2H-benzimidazol-2-one], the IC50 in assay [1] (setting [4]) turned out to be 0.01 µg/mL (≈ 0.0224 µM). Further, in assay [2] (Table I-a), the ED50 is 0.63 mg/kg. Besides, the minimal effective dose in assay [3] (Table I-a) stood at 1.25 mg/kg.

As for `O=c1sc2ccccc2n1CCCN1CCN(C(c2ccccc2)c2ccccc2)CC1` [I-c: Y=S, 3-{3-[4-(diphenylmethyl)-1-piperazinyl]propyl}-2(3H)-benzothiazolone dihydrochloride.hemihydrate], in assay [1] (Table I-c, read-out: Histamine in "vitro" (ileum) effective conc.), the IC50 was 0.01 µg/mL. In addition, the ED50 in assay [2] (Table I-c) is 1.25 mg/kg. Further, in assay [3] (Table I-c), the minimal effective dose is 1.25 mg/kg.

As to `c1ccc(C(c2ccccc2)N2CCN(CCCn3cnc4ccccc43)CC2)cc1` [I-b: M=H, R1=H, (CH2)3, R6=H, R7=H], the IC50 in assay [1] (setting [6]) amounted to 0.0025 µg/mL (≈ 0.00609 µM). The ED50 in assay [2] (Table I-b) is 0.08 mg/kg. The minimal effective dose in assay [3] (Table I-b) stood at 0.16 mg/kg.

Take `Fc1ccc(C(c2ccccc2)N2CCN(CCCn3cnc4ccccc43)CC2)cc1` (stereo not drawn) [I-b: M=H, R1=H, (CH2)3, R6=4-F, R7=H]: the IC50 in assay [1] (setting [6]) is 0.005 µg/mL (≈ 0.0117 µM). The ED50 in assay [2] (Table I-b) was 0.31 mg/kg. Besides, the minimal effective dose in assay [3] (Table I-b) turned out to be 0.31 mg/kg.

For `Cl.Cl.O=c1n(CCCN2CCN(C(c3ccccc3)c3ccccc3)CC2)c2ccccc2n1Cc1ccccc1` [1-{3-[4-(diphenylmethyl)-1-piperazinyl]propyl}-1,3-dihydro-3-(phenylmethyl)-2H-benzimidazol-2-one dihydrochloride], in assay [1] (setting [4]), the IC50 was 0.16 µg/mL. The ED50 in assay [2] (Table I-a) is 1.25 mg/kg. Further, the minimal effective dose in assay [3] (Table I-a) turned out to be 1.25 mg/kg.

For the compound `CC(C)O.Cl.Cl.Cl.Cl.Cl.Cl.Clc1cccc(C(c2ccccc2)N2CCN(CCCn3cnc4ccccc43)CC2)c1.Clc1cccc(C(c2ccccc2)N2CCN(CCCn3cnc4ccccc43)CC2)c1.O.O` (stereo not drawn) [I-b: M=H, R1=H, (CH2)4, R6=3-Cl, R7=H, 1-[3-{4-[(3-chlorophenyl)phenylmethyl]-1-piperazinyl}propyl]-1H-benzimidazole trihydrochloride.hydrate.hemi-2-propanolate], the “Histamine in "vitro" (ileum) effective conc.” value in assay [1] (Table I-b) stood at 0.01 mg/L. Moreover, in assay [2] (Table I-b), the “Anaphylaxis in guinea pigs oral effective dose in mg/kg: Survival” value was 1.25 mg/kg. The “Anaphylaxis in guinea pigs oral effective dose in mg/kg: Histamine oedema” value in assay [3] (Table I-b) came to 1.25 mg/kg.

`Fc1ccc(C(c2ccc(F)cc2)N2CCN(CCCn3cnc4ccccc43)CC2)cc1.O` [I-b: M=H, R1=H, (CH2)3, R6=4-F, R7=4-F, 1-[3-{4-[bis(4-fluorophenyl)methyl]-1-piperazinyl}propyl]-1H-benzimidazole hydrate]: in assay [1] (setting [6]), the IC50 is 0.02 µg/mL. Besides, the ED50 in assay [2] (Table I-b) is 0.16 mg/kg. Moreover, in assay [3] (Table I-b), the minimal effective dose was found to be 0.31 mg/kg.
